Where two headings read alike, the source gives them in different places.
Target: T1, hAR (human androgen receptor) (Homo sapiens, UniProt P10275)
T1 construct: made in house; host or cells: baculovirus/Sf9 insect cells (extract)
T1 sequence (P10275 1-920): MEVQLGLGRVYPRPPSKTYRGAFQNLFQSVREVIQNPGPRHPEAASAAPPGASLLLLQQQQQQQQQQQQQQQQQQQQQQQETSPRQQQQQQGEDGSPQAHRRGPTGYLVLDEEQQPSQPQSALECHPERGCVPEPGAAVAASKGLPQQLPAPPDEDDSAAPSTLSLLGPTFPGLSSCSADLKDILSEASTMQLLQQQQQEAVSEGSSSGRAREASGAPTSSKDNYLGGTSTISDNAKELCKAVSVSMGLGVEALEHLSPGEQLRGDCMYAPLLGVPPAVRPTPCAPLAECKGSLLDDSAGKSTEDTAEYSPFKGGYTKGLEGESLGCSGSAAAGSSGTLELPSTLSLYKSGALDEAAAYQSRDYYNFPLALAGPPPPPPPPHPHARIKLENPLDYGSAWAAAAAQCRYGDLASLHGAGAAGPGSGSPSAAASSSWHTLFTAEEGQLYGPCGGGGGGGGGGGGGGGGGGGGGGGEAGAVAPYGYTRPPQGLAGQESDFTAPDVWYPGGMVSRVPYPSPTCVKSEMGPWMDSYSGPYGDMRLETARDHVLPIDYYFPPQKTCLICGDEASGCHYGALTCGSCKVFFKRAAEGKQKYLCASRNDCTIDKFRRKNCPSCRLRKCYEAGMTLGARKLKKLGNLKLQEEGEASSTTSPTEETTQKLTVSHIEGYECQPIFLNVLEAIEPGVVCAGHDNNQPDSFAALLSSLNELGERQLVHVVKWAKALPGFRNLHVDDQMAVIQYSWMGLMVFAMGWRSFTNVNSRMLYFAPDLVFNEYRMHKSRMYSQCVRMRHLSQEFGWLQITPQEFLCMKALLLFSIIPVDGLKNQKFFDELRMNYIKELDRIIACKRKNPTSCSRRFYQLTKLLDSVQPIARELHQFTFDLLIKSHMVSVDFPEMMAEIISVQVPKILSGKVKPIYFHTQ
Assay: Competitive binding analysis on hAR extracts with 3H-DHT tracer
Experimental: The compounds of Formula I have affinity for the androgen receptor. […] The description below describes how the assay was carried out.
Competitive binding analysis was performed on baculovirus/Sf9 generated hAR extracts in the presence or absence of different concentrations of test agent and a fixed concentration of ^3H-dihydrotestosterone (^3H-DHT) as tracer. This binding assay method is a modification of a protocol previously described (Liao S., et. al. J. Steroid Biochem. 20:11-17 1984). Briefly, progressively decreasing concentrations of compounds are incubated in the presence of hAR extract (Chang et al. P.N.A.S. Vol. 89, pp. […], 1992), hydroxylapatite, and 1 nM ^3H-DHT for one hour at 4° C. Subsequently, the binding reactions are washed three times to completely remove excess unbound ^3H-DHT. hAR bound ^3H-DHT levels are determined in the presence of compounds (i.e. competitive binding) and compared to levels bound when no competitor is present (i.e. maximum binding). Compound binding affinity to the hAR is expressed as the concentration of compound at which one half of the maximum binding is inhibited. Table II below provides the results that were obtained for selected compounds (reported data is the mean of multiple tests as shown below)

## COCC(COc1ccccc1)Oc1ccc(C#N)c(C(F)(F)F)c1 (stereo not drawn) [Example 27, 4-(1-Methoxymethyl-2-phenoxy-ethoxy)-2-trifluoromethyl-benzonitrile]
  IC50: 5 nM

## N#Cc1ccc(OC(CO)COc2ccccc2)cc1C(F)(F)F (stereo not drawn) [Example 28, 4-(1-Hydroxymethyl-2-phenoxy-ethoxy)-2-trifluoromethyl-benzonitrile]
  IC50: 81 nM

## N#Cc1ccc(OCCCCCOc2ccc(C#N)c(C(F)(F)F)c2)cc1C(F)(F)F [Example 24]
baculovirus/Sf9 hAR extract, 1 nM 3H-DHT, one hour at 4° C, mean of multiple tests, read-out: AR Binding IC50
  IC50: 128 nM
